Key:
Format in all cases: cell-based, human
MDA-MB-435 cells = test: Chemosensitization to doxorubicin, XTT assay; conditions: 500 nM oligo, doxorubicin 24 hrs after transfection, XTT after 72 hrs
Method: FIG. 11: FIG. 11 depicts chemosensitization of MDA-MB-435 breast cancer cells after combination treatment with αhFR AS6 oligonucleotide and doxorubicin. MDA-MB-435 cells were plated at 2×10^4 cells/well and transfected with 500 nM of αhFR AS6 or S6 end-modified phosphorothioated oligonucleotide. After 24 hrs, cells were incubated with media containing doxorubicin at the indicated concentrations. Cell survival was determined by XTT assay after 72 hrs.
To determine whether or not αhFR antisense oligonucleotide sensitizes breast cancer cells to chemotherapy, the following experiment was carried out. 500 nM of AS6 oligonucleotide or S6 oligonucleotide was transfected into MDA-MB-435 cells and treated with varying concentrations of doxorubicin, twenty-four hours after transfection. Cell survival was determined after 72 hrs by XTT assay and the degree of sensitization was calculating by determining the ratio of IC50 values of the combined treatment relative to that of the S6 oligonucleotide and untreated controls. In FIG. 11, chemosensitization of MDA-MD-435 cells by AS6 oligonucleotide was about 5 fold (IC50 S6/IC50 AS6=5) relative to the sense control and about 10 fold (IC50 UT/IC50 AS6=10) relative to the untreated control.

MDA-MB-435 = test: XTT cell survival after Tf-liposome-mediated oligonucleotide transfection, MDA-MB-435; conditions: MDA-MB-435, end-modified phosphorothioated oligo, 6 hrs transfection, XTT at 48 hrs
Method: (§1) FIGS. 10A–10B: FIGS. 10A and 10B depict the effect of various concentrations of αhFR AS-6 oligonucleotide (A) and S-6 oligonucleotide (B) on survival of cultured human breast cancer cells. End-modified phosphorothioated oligonucleotides were transfected into 2×10^4 cells at the indicated concentrations for 6 hrs using a Tf-liposome-mediated delivery complex. Cell survival was assessed 48 hrs after transfection by XTT assay.
(§2) To determine the effect of αhFR antisense oligonucleotide, on the survival of cultured breast cancer cells, we transfected AS6 oligonucleotide and S6 oligonucleotide at various concentrations via the Tf-liposome-mediated gene delivery system.

KB cells [1] = test: KB cell viability after oligonucleotide treatment, total protein content by Bradford assay; conditions: compared to S-6 control
Method: The effect of AS-6 on the viability of cultured KB cells was evaluated (FIG. 3). […] The decrease in cell viability upon AS-6 treatment correlates well with the decrease in newly synthesized αhFR expression, as determined in FIG. 2B.
Cell Viability Experiments. Stable transfectants of pRc/CMV αhFR-S or pRc/CMV ahFR-AS constructs were achieved by the calcium phosphate method using the Stratagene Eukaryotic Transfection kit (La Jolla, Calif.) and selected in 500 μg/ml G418. Phosphorothioated-modified αhFR sense (S-6) and antisense (AS-6) DNA oligonucleotides were transfected into 6×10^4 KB cells by incubating oligonucleotides in 1 ml of serum-free media for 6 hrs. Transfections were terminated by the addition of 1 ml of serum-containing low-folate media. Total protein content was assessed 36 hours later by Bradford assay (Biorad, Hercules, Calif.).

T47D = test: XTT cell survival after Tf-liposome-mediated oligonucleotide transfection, T47D
Method: as §1, §2

MDA-MB-231 = test: XTT cell survival after Tf-liposome-mediated oligonucleotide transfection, MDA-MB-231; conditions: MDA-MB-231, end-modified phosphorothioated oligo, 6 hrs transfection, XTT at 48 hrs
Method: as §1, §2

αhFR mRNA = test: Northern analysis of αhFR mRNA in KB cells; conditions: oligonucleotide treatment over night
Text: Expression of αhFR is known to be elevated in cancer. In particular, increased αhFR expression is found in 90% of human epithelial ovarian malignancies and is associated with a poor disease prognosis. It is possible that over expression of αhFR confers a growth survival advantage in ovarian cancer cells, since folates are involved in numerous cellular processes, including DNA and RNA synthesis.
Northern Analysis. KB cells were maintained over night in growth media containing sense or antisense unmodified DNA oligonucleotides at the indicated concentrations. Total RNA was isolated (Promega, Madison, Wis.) and samples containing 20 μg of total cellular RNA were resolved on a 1% agarose/0.66M formaldehyde/0.023 3-(N-morpholino) propansulfonic acid gel. The RNA's were transferred to a nitrocellulose membrane (Schleicher and Schuell, Portran, Keene, N.H.) and then hybridized to a random ^32P-labeled αhFR cDNA probe as described previously.

KB cells [2] = test: KB cell viability after cytofectin transfection of ribozymes, Cell Counting Kit-8 colorimetric assay
Method: The viability of KB cells transfected with wild type or control mutant and sense ribozymes was assessed by colormetric assay. […] (FIG. 6A). […] Approximately 75% of the initial transfected ribozyme amounts disappeared after 1 hour. The quick half-life of ribozyme integrity may explain the unexpected lowered effect of αhFR ribozymes versus antisense oligonucleotides on KB cell survival.
In vitro synthesized wild type, mutant or sense-oriented ribozymes were transfected into 6×10^4 KB cells with cytofectin (Glen Research, Rockville, Md.), according to manufacturers instruction. Transfections were terminated by replacing media with 1 ml of serum-containing low-folate media. Cell viability was quantitated after 36 hours by the Cell Counting Kit-8 (Dojindo, Gaithersburg, Md.). For ribozyme decay analysis, in vitro synthesized ribozymes were radiolabeled with [α-^32P]-rCTP and rGTP using the riboprobe kit (Promega, Madison, Wis.). Radiolabeld ribozymes were transfected by the cytofectin method as described above. Total RNA was extracted at the indicated time points using the RNeasy mini kit (Quiagen, Valencia, Calif.), fractionated on a 6% sequencing gel and visualized by autoradiography. Amounts of intact internalized ^32P-labeled ribozyme were determined using the NIH image software.

Molecule: AS-6: antisense 21-mer DNA GCTCTTGCAGGTGTAGGAGGT, αhFR ORF 462–442, SEQ ID NO. 4; unmodified or phosphorothioated (antisense GCTCTTGCAGGTGTAGGAGGT; DNA, backbone and methylation of C not given here; phosphorothioate modified, described as end-modified)
- chemosensitization to doxorubicin, IC50 S6/IC50 AS6 (MDA-MB-435 cells; relative to sense control): about 5 fold
- chemosensitization to doxorubicin, IC50 UT/IC50 AS6 (MDA-MB-435 cells; relative to untreated control): about 10 fold
- IC50 (MDA-MB-435): 416 nM
- decrease in overall protein content (KB cells [1]; 10 μM phosphorothioate-modified oligo): 20%
- decrease in overall protein content (KB cells [1]; 50 μM phosphorothioate-modified oligo): 60%
- IC50 (T47D; T47D, end-modified phosphorothioated oligo, 6 hrs transfection, XTT at 48 hrs): 633 nM
- IC50 (MDA-MB-231): 600 nM
- αhFR mRNA by Northern analysis (αhFR mRNA): remained unaffected

Molecule: S6: sense control 21-mer ACCTCCTACACCTGCAAGAGC, 442–462 (sense ACCTCCTACACCTGCAAGAGC; DNA, backbone and methylation of C not given here; S-6 used both unmodified and phosphorothioate-modified, form not tied to measurement, further chemistry not fully specified) [reference compound]
- effect on survival of model breast cancer cell lines (T47D; stated for the breast cancer cell lines together (T47D, MDA-MB-231, MDA-MB-435), versus AS6): significantly less effect

Molecule: AS-1: antisense 21-mer DNA TGTTGTCATCCGCTGAGCCAT, αhFR open reading frame 21–1, SEQ ID NO. 2 (antisense TGTTGTCATCCGCTGAGCCAT; unmodified DNA)
- αhFR mRNA by Northern analysis (αhFR mRNA): remained unaffected

Molecule: AS-2: antisense 21-mer DNA AGGAGGTCAGCTGAGCAGCCA, αhFR open reading frame 780–760, SEQ ID NO. 3 (antisense AGGAGGTCAGCTGAGCAGCCA; unmodified DNA)
- αhFR mRNA by Northern analysis (αhFR mRNA): remained unaffected

B1: Rz 187/210 WT: wild type hammerhead ribozyme targeted to 5′ region of αhFR open reading frame; encoding DNA in Table II (nucleic acid)
DNA 1: CCCGTCGACAATGCCTGCTGTTTCGTCCTCACGGACTCATCAGCTACCAACACAAGCTTCCC
DNA 2: GGGCAGCTGTTACGGACGACAAAGCAGGAGTGCCTGAGTAGTCGATGGTTGTGTTCGAAGGG
modifications: target site or template, no part of the molecule; chemistry not given here; one strand is listed 3' to 5'
- decrease in cell survival (KB cells [2]; KB cells, compared to control mutant and sense ribozymes): approximately 60%

B2: Rz 187/210 MUT: mutant control ribozyme, G in the catalytic structure changed to A (nucleic acid)
DNA 1: CCCGTCGACAATGCCTGCTGTTTCGTCCTCACGGATTCATCAGCTACCAACACAAGCTTCCC
DNA 2: GGGCAGCTGTTACGGACGACAAAGCAGGAGTGCCTAAGTAGTCGATGGTTGTGTTCGAAGGG
modifications: target site or template, no part of the molecule; chemistry not given here; one strand is listed 3' to 5'
notes: mutant control ribozyme, G in the catalytic structure changed to A
- effect on cell survival (KB cells [2]; KB cells transfected with ribozyme): little, if any effect

— patent US7030236B2, “Antisense oligonucleotides tarageting folate receptor alpha, and the use thereof” (priority 2001, dated 2006)
